Source: patent US20240269106A1, “SMALL MOLECULE MODULATOR TARGETING A RARE HISTONE MODIFICATION REGULATING ADIPOGENESIS AND PHARMACEUTICAL FORMULATION THEREOF” (COUNCIL OF SCIENTIFIC AND INDUSTRIAL RESEARCH AN INDIAN …, priority 2021, published 2024)
Read-outs that look alike come from different tables or passages of the source.

Experiments:
[1] = tested on: genes associated with adipogenesis; test: RT-PCR of adipogenesis related genes in 3T3L1; format: cell-based; conditions: 3T3L1, RT-PCR
Method: Total RNA was isolated from the treated 3T3L1 cells by phenol-chloroform method. The isolated RNA samples were treated with 2 units/μL DNase I to remove any residual DNA followed by overnight ethanol precipitation at −80° C. RNA integrity was checked in 1% agarose gel. 2 μg RNA was used for cDNA synthesis using oligo dT primers. RT-PCR was done using primers of adipogenesis related genes followed by detection with SYBR Green.
RT-PCR analysis was performed to show downregulation of genes associated with adipogenesis by compound of Formula I (FIG. 5). Error bars denote mean+/−SD of three biological replicates, one-way ANOVA with Dunnett's multiple comparison; * P<0.05, ** P<0.01, *** P<0.001, ns: not significant.

[2] = Detection of compound in mice liver by Q-TOF LC/MS; format: in vivo; conditions: LC-ESI-MS of liver metabolites
Method: The liver samples of mice treated with compound I were homogenized in a solution consisting of 50% methanol and 50% water and then snap frozen in liquid nitrogen followed by lyophilization. Profiling of intracellular metabolites was performed on an agilent 1290 Infinity LC system coupled to Agilent 6545 Accurate Mass Quadrupole Time of Flight (QTOF) with Agilent Jet Stream Thermal Gradient Technology. The UPLC system was assembled with a Diode array detector (DAD) and autosampler. The Chromatographic separation was achieved on Agilent ZORBAX SB-C18 column (2.1×100 mm, 1.8 μm) as stationary phase. […]
The ESI spectra of pure solution of compound of Formula I was taken as reference (FIG. 14A). When LC-ESI-MS analysis of metabolites of compound treated mice, liver was performed, the corresponding protonated molecular ion species was detected in the ESI spectra (FIG. 14B).

[3] = Pharmacokinetic study, oral, serum LC-MS; format: in vivo, SD rats; conditions: for Cl/F_obs / Vz/F_obs / AUC(0-t) / Cmax / Tmax / AUC(0-inf) / MRT inf / half-life: free drug coarse suspension; for AUC(0-t) / Cmax / Tmax / AUC(0-inf) / MRT inf / half-life: Sprague-Dawley (SD); for AUC(0-inf): read-out: AUC 0-inf_obs; for MRT inf: read-out: MRT 0-inf_obs; for half-life: read-out: t½ (converted)
Method: Healthy male SD rats (weighing 200-230 gm) were used for the pharmacokinetic study. The animals were fasted overnight and had free access to water. The animals were divided into six groups with each group having 6 male SD rats (6×6=36) and were orally administered with optimized compound X nano lipid carrier formulation and coarse suspension (free drug) of compound X. All the formulations were administered orally with the help of rat oral feeding tube. The group comprises as follows, GROUP 1: Only vehicle sodium suspension as control/blank. GROUP 2: Compound X optimized NLC formulation by oral delivery (25 mg/kg). GROUP 3: Compound X free drug as coarse suspension by oral delivery (25 mg/kg). GROUP 4: Compound X free drug as coarse suspension by oral delivery (50 mg/kg). GROUP 5: Compound X free drug as coarse suspension by oral delivery (100 mg/kg). GROUP 6: Compound X free drug as coarse suspension by oral delivery (200 mg/kg). Blood samples were withdrawn from retro-orbital venous plexus puncture at time intervals of 0.25, 0.5, 1, 2, 4, 8, 12, 24 and 48 hours. The blood samples were allowed to clot and centrifuged for 15 min at 4500 rpm. The serum was separated and transferred into clean micro centrifuge tubes and stored at −80° C. until further analysis. 50 μl of rat serum was taken from samples and added to extraction solvent 2.5% IPA in n-Hexane (2 mL) containing internal standard (SCTK-14 of 2.5 ng) than Vortexed for 10 minutes, the samples were centrifuged at 4500 rpm and 4° C. for 15 minutes. After centrifugation, samples were stored at −80° C. for 30 minutes, and the supernatant organic layer was transferred and evaporated to dryness in a thermostatically controlled water bath maintained at 30° C. under steam of nitrogen for 30 minutes. After drying the residue was reconstituted by adding 200 microlitres of acetonitrile into pre-labelled vials and vortexed for 20 seconds, and then the samples were injected into the LC-MS system for analysis.
The pharmacokinetic parameters of compound X were calculated by non-compartmental estimations using PK solver 2.0 software.

[4] = male, rat, serum, 25 mg/kg oral
[5] = male, rat, serum, 50 mg/kg oral
[6] = male, rat, serum, 100 mg/kg oral
[7] = male, rat, serum, 200 mg/kg oral

With `COc1ccc(C(=O)C2=C3OC(C)(C)[C@@H](CC=C(C)C)C[C@@]34C[C@@H](CC=C(C)C)C(C)(C)[C@@](CC=C(C)C)(C2=O)C4=O)cc1OC` [Compound X] the “expression of genes associated with adipogenesis” value [1] was “downregulation”, the “detection in mice liver (bioavailability)” value [2] was “detected in its intact form” and the “difference in AUC between doses” value ([3]; free compound X at 25, 50, 100 and 200 mg/kg, except at 200 mg/kg) was “no appreciable difference in AUC”. For the same compound, the Cl/F_obs ([3]; 25 mg/kg oral) was 3.338 ± 0.33 mg)/(ng/ml)/h, the Vz/F_obs ([3]; 25 mg/kg oral) was 71.906 ± 29.05 (mg)/(ng/ml) and the Cl/F_obs ([3]; 50 mg/kg oral) was 8.071 ± 2.12 mg)/(ng/ml)/h. The Vz/F_obs ([3]; 50 mg/kg oral) was 193.686 ± 112.43 (mg)/(ng/ml), the Cl/F_obs ([3]; 100 mg/kg oral) was 18.233 ± 4.3 mg)/(ng/ml)/h and the Vz/F_obs ([3]; 100 mg/kg oral) was 346.653 ± 2.6193 (mg)/(ng/ml). For the same compound, the Cl/F_obs ([3]; 200 mg/kg oral) was 10.882 ± 4.58 mg)/(ng/ml)/h, the Vz/F_obs ([3]; 200 mg/kg oral) was 209.737 ± 91.22 (mg)/(ng/ml) and the AUC ([3]; male, SD, rat, serum, oral, free compound X, 200 mg/kg dose) was about 20 ng·h/mL. The AUC(0-t) [3, 4] was 6.56 ± 1.57 ng·h/mL, the Cmax [3, 4] was 0.853 ± 0.09 ng/mL and the Tmax [3, 4] was 4.67 ± 3.05 h. It also gave an AUC(0-inf) [3, 4] of 7.54 ± 0.8 ng·h/mL, an MRT inf [3, 4] of 22.2 ± 9.59 h and a half-life [3, 4] of 14.7 ± 5.07 h. The AUC(0-t) [3, 5] was 4.74 ± 0.1 ng·h/mL, the Cmax [3, 5] was 2.49 ± 0.14 ng/mL and the Tmax [3, 5] was 0.333 ± 0.14 h. The AUC(0-inf) [3, 5] was 6.49 ± 1.71 ng·h/mL, the MRT inf [3, 5] was 28.4 ± 22.8 h and the half-life [3, 5] was 18.6 ± 12.2 h. For the same compound, the AUC(0-t) [3, 6] was 5.29 ± 0.99 ng·h/mL, the Cmax [3, 6] was 0.343 ± 0.15 ng/mL and the Tmax [3, 6] was 0.667 ± 0.28 h. The AUC(0-inf) [3, 6] was 5.74 ± 1.6 ng·h/mL, the MRT inf [3, 6] was 21 ± 3.98 h and the half-life [3, 6] was 13.8 ± 3.74 h. The AUC(0-t) [3, 7] was 19.1 ± 7.84 ng·h/mL, the Cmax [3, 7] was 2.83 ± 2.16 ng/mL and the Tmax [3, 7] was 2.92 ± 4.4 h. The AUC(0-inf) [3, 7] was 20.6 ± 7.98 ng·h/mL, the MRT inf [3, 7] was 15.7 ± 2.87 h and the half-life [3, 7] was 13.4 ± 4.31 h.
